Measured values published in patent US20180104264A1, “Method for Preparing Lyophilized Organic Solvent-Free Cyclophosphamide” (KOREA UNITED PHARM. INC., priority 2016, published 2018).

Assay: Measurement of porosity (KOPTRI)
Format: physicochemical
Excerpt: Porosity measurement for the samples prepared by the present applicant was requested from the Korea Polymer Testing & Research Institute (KOPTRI), an authorized international testing agency.

Work on `O=P1(N(CCCl)CCCl)NCCCO1` (stereo not drawn) [Comparison 4, 2-[bis(2-chloroethyl)amino]tetrahydro-2H-1,3,2-oxazaphosphorin-2-oxide] yielded an Apparent density of 1.31 g/mL, a Porosity of 5.24% and an Average diameter (pore size) of 0.02 μm.
